This passage reports IC50 results from patent US12410208B2, “(2-acetamidyl)thio-beta-D-galactopyranoside derivatives” (Idorsia Pharmaceuticals Ltd, priority 2020, dated 2025).

One assay deals with human Gal-1 (hGal-1) (Homo sapiens, UniProt P09382). Nature of the assay: Competitive binding assay: biotinylated hGal-1 binding to microplate-adsorbed asialofetuin (ASF), spectrophotometric. The note with it: hGal-1 binding to asialofetuin; Table 15; R and S epimers of selected Examples also listed; read-out: IC50 (Galectin-1 inhibition). A digest of the protocol: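 Biotinylated hGal-1 (300-1000 ng/mL) incubated with compound on asialofetuin-coated plates 3 hours at 4 °C, washed, then streptavidin-peroxidase (80 ng/mL) 1 hour at 4 °C. ABTS substrate read spectrophotometrically; IC50 reported as mean of several measurements.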

The target in assay [1] is biotinylated human Gal-3 (hGal-3) (Homo sapiens, UniProt P17931). Nature of the assay: Competitive binding assay: biotinylated hGal-3 binding to microplate-adsorbed asialofetuin (ASF), spectrophotometric. Summed up: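 Competitive binding of biotinylated hGal-3 to plate-adsorbed asialofetuin was measured with serially diluted compounds over 3 h at 4° C. Bound protein was detected with streptavidin-peroxidase and ABTS substrate by absorbance. IC50 values are means of several measurements.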

The mark [2] stands for this setting: Table 9, hGal-3, read-out: IC50 (Gal-3 inhibition).
[3] abbreviates: Table 11, hGal-3, read-out: IC50 (Gal-3 inhibition).
Setting [4] is: Gal-3 inhibition, Table 5, read-out: IC50.
[5] abbreviates: Gal-3 inhibition, Table 4, read-out: IC50.

Like-named read-outs stand apart in the source and are kept apart here.

human Gal-1 (hGal-1), sequence (P09382 whole entry): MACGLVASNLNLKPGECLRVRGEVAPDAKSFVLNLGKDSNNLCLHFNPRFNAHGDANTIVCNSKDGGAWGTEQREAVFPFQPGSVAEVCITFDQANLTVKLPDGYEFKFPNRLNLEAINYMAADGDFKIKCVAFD
biotinylated human Gal-3 (hGal-3), sequence (P17931 whole entry): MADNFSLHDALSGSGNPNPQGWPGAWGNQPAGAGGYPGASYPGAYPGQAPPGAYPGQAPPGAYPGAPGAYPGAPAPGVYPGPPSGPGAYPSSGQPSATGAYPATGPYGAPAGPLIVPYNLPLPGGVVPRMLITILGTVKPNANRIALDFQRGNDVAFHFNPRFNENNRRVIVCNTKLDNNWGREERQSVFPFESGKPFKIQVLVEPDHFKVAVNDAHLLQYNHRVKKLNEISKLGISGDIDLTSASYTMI

On to `CN(C(=O)C(S[C@@H]1O[C@H](CO)[C@H](O)[C@H](n2cc(-c3cc(F)c(F)c(F)c3)nn2)[C@H]1O)C1(O)CCOCC1)c1ccccc1` (stereo partly drawn) [Example 2.41.231.], for which the IC50 was found to be 80 nM on human Gal-1 (hGal-1) and 110 nM in assay [1] (setting [2]).
With `CCN(C)C(=O)C(S[C@@H]1O[C@H](CO)[C@H](O)[C@H](n2cc(-c3cc(F)c(Br)c(F)c3)nn2)[C@H]1O)C1(O)CCOCC1` (stereo partly drawn) [Example 18.41.203., 2-(((2S,3R,4S,5R,6R)-4-(4-(4-Bromo-3,5-difluorophenyl)-1H-1,2,3-triazol-1-yl)-3,5-dihydroxy-6-(hydroxymethyl)tetrahydro-2H-pyran-2-yl)thio)-N-ethyl-2-(4-hydroxytetrahydro-2H-pyran-4-yl)-N-methylacetamide], the IC50 on human Gal-1 (hGal-1) is 350 nM; in assay [1] (setting [3]), 40 nM.
With `CN(CCC(C)(C)C)C(=O)C(S[C@@H]1O[C@H](CO)[C@H](O)[C@H](n2cc(-c3cc(F)c(F)c(F)c3)nn2)[C@H]1O)C1(O)CCC(F)(F)CC1` (stereo partly drawn) [Example 2.44.225., 2-(4,4-Difluoro-1-hydroxycyclohexyl)-2-(((2S,3R,4S,5R,6R)-3,5-dihydroxy-6-(hydroxymethyl)-4-(4-(3,4,5-trifluorophenyl)-1H-1,2,3-triazol-1-yl)tetrahydro-2H-pyran-2-yl)thio)-N-(3,3-dimethylbutyl)-N-methylacetamide], the IC50 on human Gal-1 (hGal-1) stood at 150 nM; in assay [1] (setting [4]), 70 nM.
For `CCN(C)C(=O)[C@H](S[C@@H]1O[C@H](CO)[C@H](O)[C@H](n2cc(-c3cc(F)c(F)c(F)c3)nn2)[C@H]1O)C1(O)CCOCC1` [Example 2.41.203R., (R)-2-(((2S,3R,4S,5R,6R)-3,5-Dihydroxy-6-(hydroxymethyl)-4-(4-(3,4,5-trifluorophenyl)-1H-1,2,3-triazol-1-yl)tetrahydro-2H-pyran-2-yl)thio)-N-ethyl-2-(4-hydroxytetrahydro-2H-pyran-4-yl)-N-methylacetamide], in that order: greater than 39800 nM and 4430 nM.
As to `CO[C@@H]1[C@@H](n2cc(-c3cc(F)c(F)c(F)c3)nn2)[C@@H](O)[C@@H](CO)O[C@H]1SC(C(=O)N1CCC(C)(C)CC1)C1(O)CCC(F)(F)CC1` (stereo partly drawn) [Example 2.44.245.I., 2-(4,4-Difluoro-1-hydroxycyclohexyl)-1-(4,4-dimethylpiperidin-1-yl)-2-(((2S,3R,4S,5R,6R)-5-hydroxy-6-(hydroxymethyl)-3-methoxy-4-(4-(3,4,5-trifluorophenyl)-1H-1,2,3-triazol-1-yl)tetrahydro-2H-pyran-2-yl)thio)ethan-1-one], the IC50 turned out to be 210 nM on human Gal-1 (hGal-1) and 90 nM in assay [1] (Table 12, hGal-3, read-out: IC50 (Gal-3 inhibition)).
As for `O=C([C@H](S[C@@H]1O[C@H](CO)[C@H](O)[C@H](n2cc(-c3cc(F)c(F)c(F)c3)nn2)[C@H]1O)C1(O)CCC1)N1CCC1` [Example 2.34.206R., (R)-1-(Azetidin-1-yl)-2-(((2S,3R,4S,5R,6R)-3,5-dihydroxy-6-(hydroxymethyl)-4-(4-(3,4,5-trifluorophenyl)-1H-1,2,3-triazol-1-yl)tetrahydro-2H-pyran-2-yl)thio)-2-(1-hydroxycyclobutyl)ethan-1-one], the IC50 on human Gal-1 (hGal-1) was 6910 nM; in assay [1] (setting [4]) it was 1800 nM.
As to `CN(C(=O)[C@H](S[C@@H]1O[C@H](CO)[C@H](O)[C@H](n2cc(-c3cc(F)c(F)c(F)c3)nn2)[C@H]1O)C1(O)CCOCC1)c1ccccn1` [Example 2.41.233R.], the IC50 at human Gal-1 (hGal-1) stood at 9800 nM; in assay [1] (setting [2]) it was 8500 nM.
For the compound `CN(CC1CC1)C(=O)C(S[C@@H]1O[C@H](CO)[C@H](O)[C@H](n2cc(-c3cc(F)c(F)c(F)c3)nn2)[C@H]1O)C1(O)CCC1` (stereo partly drawn) [Example 2.34.218., N-(Cyclopropylmethyl)-2-(((2S,3R,4S,5R,6R)-3,5-dihydroxy-6-(hydroxymethyl)-4-(4-(3,4,5-trifluorophenyl)-1H-1,2,3-triazol-1-yl)tetrahydro-2H-pyran-2-yl)thio)-2-(1-hydroxycyclobutyl)-N-methylacetamide], the IC50 at human Gal-1 (hGal-1) is 220 nM; in assay [1] (setting [4]) it was 310 nM.
For “2-(4,4-Difluoro-1-hydroxycyclohexyl)-2-(((2S,3R,4S,5R,6R)-3,5-dihydroxy-6-(hydroxymethyl)-4-(4-(3,4,5-trifluorophenyl)-1H-1,2,3-triazol-1-yl)tetrahydro-2H-pyran-2-yl)thio)-N-ethyl-N-methylacetamide [Example 2.44.203.]”, in that order: 140 nM and 60 nM.
For the compound `O=C([C@@H](S[C@@H]1O[C@H](CO)[C@H](O)[C@H](n2cc(-c3cc(F)c(F)c(F)c3)nn2)[C@H]1O)C1(O)CCOCC1)N1CCCCC1` [Example 2.41.208S., (S)-2-(((2S,3R,4S,5R,6R)-3,5-Dihydroxy-6-(hydroxymethyl)-4-(4-(3,4,5-trifluorophenyl)-1H-1,2,3-triazol-1-yl)tetrahydro-2H-pyran-2-yl)thio)-2-(4-hydroxytetrahydro-2H-pyran-4-yl)-1-(piperidin-1-yl)ethan-1-one], the half-inhibitory concentration (IC50) on human Gal-1 (hGal-1) came out at 800 nM; in assay [1] (setting [5]) it was 20 nM.
For the compound `CN(CC(F)(F)F)C(=O)[C@H](S[C@@H]1O[C@H](CO)[C@H](O)[C@H](n2cc(-c3cc(F)c(F)c(F)c3)nn2)[C@H]1O)C1(O)CCC1` [Example 2.34.219R., (R)-2-(((2S,3R,4S,5R,6R)-3,5-Dihydroxy-6-(hydroxymethyl)-4-(4-(3,4,5-trifluorophenyl)-1H-1,2,3-triazol-1-yl)tetrahydro-2H-pyran-2-yl)thio)-2-(1-hydroxycyclobutyl)-N-methyl-N-(2,2,2-trifluoroethyl)acetamide], the IC50 is 33600 nM at human Gal-1 (hGal-1) and 7840 nM in assay [1] (setting [4]).
In the same order, the values of `CN(CC1(F)CCCC1)C(=O)C(S[C@@H]1O[C@H](CO)[C@H](O)[C@H](n2cc(-c3cc(F)c(F)c(F)c3)nn2)[C@H]1O)C1(O)CCC(F)(F)CC1` (mixture of isomers) [Example 2.44.223., 2-(4,4-Difluoro-1-hydroxycyclohexyl)-2-(((2S,3R,4S,5R,6R)-3,5-dihydroxy-6-(hydroxymethyl)-4-(4-(3,4,5-trifluorophenyl)-1H-1,2,3-triazol-1-yl)tetrahydro-2H-pyran-2-yl)thio)-N-((1-fluorocyclopentyl)methyl)-N-methylacetamide] are 120 nM and 50 nM.
On to “2-(((2S,3R,4S,5R,6R)-3,5-Dihydroxy-6-(hydroxymethyl)-4-(4-(3,4,5-trifluorophenyl)-1H-1,2,3-triazol-1-yl)tetrahydro-2H-pyran-2-yl)thio)-2-(4-hydroxy-1-methylpiperidin-4-yl)-N-isobutyl-N-methylacetamide [Example 2.40.200.]”, for which the IC50 came to 190 nM on human Gal-1 (hGal-1) and 80 nM in assay [1] (setting [5]).
For `CN(CC(F)(F)F)C(=O)C(S[C@@H]1O[C@H](CO)[C@H](O)[C@H](n2cc(-c3cc(F)c(F)c(F)c3)nn2)[C@H]1O)C1(O)CCC1` (stereo partly drawn) [Example 2.34.219., 2-(((2S,3R,4S,5R,6R)-3,5-Dihydroxy-6-(hydroxymethyl)-4-(4-(3,4,5-trifluorophenyl)-1H-1,2,3-triazol-1-yl)tetrahydro-2H-pyran-2-yl)thio)-2-(1-hydroxycyclobutyl)-N-methyl-N-(2,2,2-trifluoroethyl)acetamide], the IC50 is 640 nM at human Gal-1 (hGal-1) and 260 nM in assay [1] (setting [4]).
In the same order, the values of `CN(CC(F)(F)F)C(=O)[C@H](S[C@@H]1O[C@H](CO)[C@H](O)[C@H](n2cc(-c3cc(F)c(F)c(F)c3)nn2)[C@H]1O)C1(O)CCCCC1` [Example 2.39.219R., (R)-2-(((2S,3R,4S,5R,6R)-3,5-Dihydroxy-6-(hydroxymethyl)-4-(4-(3,4,5-trifluorophenyl)-1H-1,2,3-triazol-1-yl)tetrahydro-2H-pyran-2-yl)thio)-2-(1-hydroxycyclohexyl)-N-methyl-N-(2,2,2-trifluoroethyl)acetamide] are 550 nM and 270 nM.
In the same order, the values of “2-(4,4-Difluoro-1-hydroxycyclohexyl)-2-(((2S,3R,4S,5R,6R)-3,5-dihydroxy-6-(hydroxymethyl)-4-(4-(3,4,5-trifluorophenyl)-1H-1,2,3-triazol-1-yl)tetrahydro-2H-pyran-2-yl)thio)-N-(2-fluoro-2-methylpropyl)-N-methylacetamide [Example 2.44.222.]” are 350 nM and 130 nM.
For the compound `CCN(C)C(=O)C(S[C@@H]1O[C@H](CO)[C@H](O)[C@H](n2cc(-c3cc(F)c(Cl)c(F)c3)nn2)[C@H]1O)C1(O)CCOCC1` (stereo partly drawn) [Example 11.41.203., 2-(((2S,3R,4S,5R,6R)-4-(4-(4-Chloro-3,5-difluorophenyl)-1H-1,2,3-triazol-1-yl)-3,5-dihydroxy-6-(hydroxymethyl)tetrahydro-2H-pyran-2-yl)thio)-N-ethyl-2-(4-hydroxytetrahydro-2H-pyran-4-yl)-N-methylacetamide], the IC50 on human Gal-1 (hGal-1) worked out at 320 nM; in assay [1] (setting [3]), 30 nM.
On to `CCN(C)C(=O)[C@H](S[C@@H]1O[C@H](CO)[C@H](O)[C@H](n2cc(-c3cc(F)c(F)c(F)c3)nn2)[C@H]1O)C1(O)CCN(C(=O)OC)CC1` [Example 2.50.203R., (R)-Methyl 4-(1-(((2S,3R,4S,5R,6R)-3,5-dihydroxy-6-(hydroxymethyl)-4-(4-(3,4,5-trifluorophenyl)-1H-1,2,3-triazol-1-yl)tetrahydro-2H-pyran-2-yl)thio)-2-(ethyl(methyl)amino)-2-oxoethyl)-4-hydroxypiperidine-1-carboxylate], for which the IC50 amounted to 10500 nM at human Gal-1 (hGal-1) and 4450 nM in assay [1] (Table 8, hGal-3, read-out: IC50 (Gal-3 inhibition)).

As usually defined, the IC50 is the concentration needed to halve the response being measured.
